{"source": "patent US9409983B2", "about": "“Methods and compositions involving PBEF inhibitors for lung inflammation conditions and diseases” (The Board of Trustess of the University of Illinois, priority 2009, dated 2016)", "key": {"[1]": {"system": "rat peritoneal neutrophils", "assay": "Transmigration and chemotaxis assay (Transwell)", "type": "cell-based", "conditions": "rhPBEF (10 ng/ul) or casein in lower chamber, up to 4 hours", "protocol": "Chemotaxis of rat peritoneal neutrophils (calcein-AM) across 3 μm polycarbonate filters was assessed in response to recombinant human PBEF/visfatin (rhPBEF, PeproTech, Rocky Hill, N.J.), or casein (positive control). (See Supplemental Methods for additional details).\nNeutrophils were collected from retired breeder male Harlan-Sprague Dawley rats by intraperitoneal injection of 2.5% casein (5 ml). The resulting peritoneal fluid was recovered by PBS peritoneal lavage after 18 hr, centrifuged and examined for total cell counts and cell differentiation. For chemotaxis assays, leukocytes were exposed to calcein-AM in the presence of plurionic acid for 1 hr at room temperature. The temperature was then elevated to 37° C. for 30 min to cleave the calcein AM thereby reducing the rate of calcein diffusion out of the cells. […] The receiving wells were assessed serially in a fluorescent plate reader with absorption at 494 nm and emission measured at 517 nm. Fluorescence was recorded at 5, 10, 15, 30 min and each subsequent 30 min period for up to 4 hr. Aliquots of known numbers of neutrophils were counted in separate wells at each time point to account for any quenching of the fluorescence over time."}, "human PBEF [2]": {"system": "human PBEF", "conditions": "as reported in Ye et al. 2005; cited from earlier work"}, "human PBEF [3]": {"system": "human PBEF", "assay": "In vitro PBEF silencing with siRNAs", "type": "cell-based", "from_the_text": "In vitro human PBEF stealth siRNAs were designed based on the human PBEF cDNA reference sequence (NM_005746.1) using the BLOCK-iTi RNAi Designer (Invitrogen, Carlsbad, Calif.). The siRNA sequence 1 (as reported in Ye et al. 2005 MVR w/@75% silencing) was custom synthesized from Invitrogen (cat#10620312_40993403, NM_005746); (5′-[…]-3′ SEQ ID NO:4) and scrambled controls (cat#10620312_40993404).\nAlternatively, small interfering RNA (siRNA) targeting human PBEF1 (NM_005746) was purchased as 4 ON-TARGETplus SMARTpool siRNA duplexes (catalog#L-004581-00) from Dharmacon (Lafayette, Colo.)."}, "RENCA cells": {"system": "RENCA cells", "conditions": "cited from earlier work"}}, "data": [{"compound": "casein [reference compound]", "values": [{"measurement": "PMN migration across Transwell filters", "setting": "[1]", "result": "significant at all time points beginning at 30 minutes"}]}, {"compound": "Invitrogen siRNA: human PBEF stealth siRNA, single sequence, custom synthesized from Invitrogen; 5′-CCACCCAACACAAGCAAAGUUUAUU-3′ SEQ ID NO:4 (Stealth siRNA from Invitrogen, modification pattern not given here)", "values": [{"measurement": "PBEF silencing", "setting": "human PBEF [2]", "result": 75, "unit": "%"}, {"measurement": "downregulating PBEF protein expression", "setting": "human PBEF [3]", "result": "effective"}]}, {"compound": "O=C(/C=C/c1cccnc1)NCCCCC1CCN(C(=O)c2ccccc2)CC1", "note": "[FK-866]", "values": [{"measurement": "toxicity compared with TNP-470 treatment", "setting": "RENCA cells; doses of up to 6 mg/kg FK-866, TNP 470 30 mg/kg subcutaneously every other day", "result": "less toxic than treatment with TNP-470"}, {"measurement": "doses with significant antitumor efficacy", "setting": "RENCA cells; oral, twice daily, days 14 to 19 after tumor cell inoculation", "result": "≥ 10", "unit": "mg/kg"}]}]}
